Source: patent US8784911B2, “Compositions for treatment and prevention of diabetic complications using Osteomeles schwerinae” (Korea Institute of Oriental Medicine, priority 2009, dated 2014)
Where two headings read alike, the source gives them in different places.

Tests used:
[1] = system: advanced glycation endproduct generation (bovine serum albumin with fructose and glucose); experiment: In vitro inhibitory effect on advanced glycation endproduct generation (BSA + fructose/glucose, fluorescence); format: biochemical
Method: Inhibitory effect of Osteomeles schwerinae small twig/leaf extract, fractions thereof obtained from each of hexane layer, ethyl acetate layer, butanol layer and water layer of the extract, and Osteomeles schwerinae seed extract on advanced glycation endproduct generation was investigated in vitro. Bovine serum albumin (BSA, Sigma, USA) was used as a protein source. BSA was added to 50 mM phosphate buffer (pH 7.4) at the concentration of 10 mg/ml. As a sugar source, the mixed solution of 0.2 M fructose and 0.2 M glucose was used. The mixed solution of fructose and glucose was added to the BSA solution. Osteomeles schwerinae small twig/leaf extract was prepared at different concentrations of 5 μg/ml, 10 μg/ml and 25 μg/ml. Hexane layer was also prepared at the concentrations of 10 μg/ml, 25 μg/ml and 50 μg/ml. Ethyl acetate layer was prepared at different concentrations of 5 μg/ml, 10 μg/ml and 25 μg/ml. Butanol layer and water layer were respectively prepared at the concentrations of 2.5 μg/ml, 5 μg/ml and 10 μg/ml. Osteomeles schwerinae seed extract was also prepared at different concentrations of 5 μg/ml, 10 μg/ml and 25 μg/ml. (All of those compounds were dissolved in DMSO, to which 15% tween 80 was added. At this time, the content of DMSO was 0.2%). Each extract or fraction was mixed with the mixed solution of BSA and sugars, followed by culture at 37° C. for 14 or 28 days. At this time, 0.02% sodium azide and antimycotics were added thereto as the antibacterial and antifungal agent. For the control, the mixed solution of BSA and sugars was cultured. The blank groups of each experimental and the control were composed as the above but not cultured. For the positive control, which would be used as an index for the comparison of the effect, aminoguanidine was used. To avoid error, 4 of each culture solution were prepared. 14 or 28 days later, the content of advanced glycation endproducts generated in each culture solution was measured and compared. AGEs therein were fluorescent and brown colored. They have physiochemical properties for the cross-linking and also have ligand that can be recognized by cell membrane receptor. The amount of AGEs having the said properties was measured with microplate reader (Excitation: 350 nm, Emission: 450 nm) to analyze the inhibitory effect on the generation of AGEs (Vinson, J. A. et al., J. Nutr. Biochem., 7: 659-663, 1996).
Inhibitory rate of generation was calculated by the following formula. Inhibitory rate of generation(%)=100−(fluorescence intensity of experimental group sample−fluorescence intensity of empty sample)/(fluorescence intensity of control group sample−fluorescence intensity of control group empty sample)×100
Aminoguanidine was dissolved in distilled water and then cultured at the concentrations of 37 μg/ml, 55.5 μg/ml and 74 μg/ml at 37° C. for 14 days and also cultured at the concentrations of 18.5 μg/ml, 37.0 μg/ml and 92.5 μg/ml for 28 days by the same manner as described above. The amount of advanced glycation endproducts generated in each culture solution was measured with microplate reader (Excitation: 350 nm, Emission: 450 nm). Inhibitory effect of Osteomeles schwerinae small twig/leaf extract, its fractions and Osteomeles schwerinae seed extract on advanced glycation endproduct generation was measured in vitro by the same manner as described above and the results are shown in Table 2.

[2] = target: T1, aldose reductase (Rattus norvegicus, UniProt P07943); experiment: In vitro inhibitory effect on aldose reductase activity; format: biochemical, SD rat; settings: for inhibition of aldose reductase activity: compounds isolated from Osteomeles schwerinae extract
T1 construct: To obtain natural aldose reductase from eyeballs of SD rat; from tissue; host or cells: lens of Sprague-Dawley rat (homogenate supernatant)
Method: To obtain natural aldose reductase from eyeballs of SD rat (Sprague-Dawley rat, 250-280 g) by the method of Dufrane (1984), the extracted lens were pulverized together with 135 mM Na, K-phosphate buffer (pH 7.0), and 10 mm 2-mercaptoethanol using homogenizer and sonicater. After performing centrifugation at 14000 rpm for 30 minutes, the supernatant was filtered with 0.2 μm filter at 4° C. Quantification was performed by Lowry method using BSA as a protein source of enzyme. The mixture of 135 mM Na, K-phosphate buffer (pH 7.0), 100 mM lithium sulfate, 0.03 mM NADPH, 0.04 mM DL-glyceraldehyde and 100 μg/ml enzyme was dissolved in 0.1% DMSO, which was added to 50 μl of each sample diluted at different concentrations. Total volume of the mixture was adjusted to 1 ml, followed by reaction at 37° C. for 10 minutes. […] The reaction was terminated by adding 0.3 ml of 0.5 N HCl, to which 1 in of 6 M NaOH supplemented with 10 mM imidazole wad added, followed by reaction at 60° C. for 10 minutes. Then, conversion rate (NADP fluorescent product) was measured. Each sample was tested in triplicate. Inhibition effect was measured by using spectrofluorophotometric detector (Ex. 360 nm, Em. 460 nm, Bio-TEK, Synergy HT, USA) and the results were presented as IC50.

[3] = system: type I diabetes animal model induced by streptozotocin (STZ); experiment: Type I diabetes animal model induced by streptozotocin; format: in vivo, SD rat
Method: Fully adapted (for 1 week) SD rats (6 weeks, 180-200 g) were used. After adaptation, the rats were fasted for 16 hours. Before the administration of samples, streptozotocin dissolved in 0.1 M citrate buffer (pH 4.5) was treated once by peritoneal injection (60 mg/kg). A week after the peritoneal injection, blood glucose level was measured at fasted or non-fasted state. Rats showing blood glucose level of at least 250 mg/dl at fasted state were selected and distributed fairly with considering the average. 5 groups were prepared as follows: the normal group treated with nothing (presented as Nor), the normal group treated with 200 mg/kg of Osteomeles schwerinae extract (presented as N+OS-141), the group induced with diabetes (presented as DM), the diabetes group treated with 100 mg/kg of Osteomeles schwerinae extract (presented as OS-100), and the positive control group treated with aminoguanidine (presented as AG). Osteomeles schwerinae extract and aminoguanidine were dissolved in water, which were administered orally to the rats every day (5 ml/kg) for 8 weeks. 8 weeks later, the animals were fasted, followed by autopsy. Blood was drawn from saphenons vein. Plasma was separated by centrifuging the whole blood at 3000 rpm at 4° C. The plasma was stored at −70° C. for the later use for data analysis. Each organ was weighed and frozen by using liquid nitrogen, which was stored at 70° C.
Urine was taken for 24 hours on the last week before autopsy to comparatively observe renal function indices and oxidative stress factors. ELISA was performed to measure AGEs and podocyte (synaptopodin). Urine was mixed with coating buffer (50 mM carbonate buffer, pH 9.6) at the ratio of 1:2, which was distributed in 96 well plate (100 μl/well). After incubating the plate at 37° C. for 3 hours, the plate was washed with 0.05% PBST three times, and blocked with 3% skim milk. The plate was stood for one hour and then washed. AGEs (Transgenic, Japan) and synaptopodin (Santa Cruz, USA) antibody were diluted at the ratio of 1:1000 respectively, followed by loading in each well of the plate by 100 μl, which stood at 37° C. for 2 hours. After washing the plate with 0.05% PBST, HRP-conjugated 2nd antibody was loaded in each well of the plate by 100 μl, which stood at 37° C. for 1 hour. 3,3′,5,5′-tetramethylbenzidine (TMB) was added in each well of the plate by 100 μl. Five minutes later, reaction termination solution (1M H2SO4) was added in each well of the plate by 100 μl and then OD was measured with ELISA reader. Albuminuria and creatinine (Cr) used as renal function indices were measured.
Kidney was extracted during autopsy, which was fixed in 10% neutralized formalin, followed by dehydration. The kidney was substituted with xylene three times, followed by embedding with paraffin. The embedded tissue block was cut into 4 μm sections, which were placed on microscope slide. PAS staining was performed to observe morphological changes. The stained slide was observed under optical microscope. […] To investigate fibrosis by collagen infiltrated in kidney cortex, Masson's trichrome staining was performed. Multiple numbers of collagen stained as blue by Masson's trichrome were observed around glomerular, basement membrane and in interstitial area between renal tubules in the diabetes group, but the difference was not significant from that of the normal group. […] Histological changes were traced 8 weeks after inducing diabetes. […]

[4] = 24 h urine, last week, vs diabetes group
[5] = STZ diabetic rats, 100 mg/kg oral daily, 8 weeks

With `CC(=O)OC1C(c2c(O)cc(O)c3c(=O)cc(-c4ccc(O)cc4)oc23)OC(CO)C(O)C1O` (centres unmarked) [2-O-acetylvitexin] the “inhibition of advanced glycation endproduct generation” value ([1]; compounds isolated from Osteomeles schwerinae extract) was “confirmed to inhibit” and the “inhibition of aldose reductase activity” value [2] was “confirmed to inhibit”.

With `O=C(O)CC1(CC(=O)O)CCCC1` [3,3-tetramethyleneglutaric acid] the inhibition at 3.72 µg/mL ([2]; 3.72 μg/ml (20 μm)) was 39.3 ± 4.17%, the inhibition at 4.66 µg/mL ([2]; 4.66 μg/ml (25 μm)) was 55.7 ± 3.25% and the inhibition at 5.59 µg/mL ([2]; 5.59 μg/ml (30 μm)) was 60.3 ± 1.39%. The IC50 ([2]; read-out: inhibitory effect (IC50) on aldose reductase) was 24.1 µM and the IC50 ([2]; read-out: inhibitory effect (IC50, μg/ml) on aldose reductase (converted)) was 24.2 µM.

For `Oc1cc(O)c2c(c1)O[C@H](c1ccc(O)c(O)c1)[C@H](O)C2` [(−)-epicatechin], the “inhibition of advanced glycation endproduct generation” value [1] was “confirmed to inhibit” and the “inhibition of aldose reductase activity” value [2] was “confirmed to inhibit”.

With `N=C(N)NN` [Aminoguanidine] the “expressions of AGEs and RAGE in kidney” value ([3]; 100 mg/kg) was “significantly reduced”, the “podocyte loss in glomerulus, synaptopodin and WT1 staining” value ([3]; 100 mg/kg, vs diabetes group) was “podocyte loss was reduced” and the “fibrosis by collagen in kidney cortex, Masson's trichrome staining” value ([3]; 8 weeks) was “such change was not peculiar”. For the same compound, the “glomerular basement membrane thickening, PAS staining” value ([3]; 8 weeks, vs untreated diabetes group) was “any change in glomerular basement membrane thickening was not observed”, the “Albuminuria” value [3, 4] was “decreased significantly” and the “Urine alb/Cr” value [3, 4] was “decreased”. For the same compound, the “Body weight (g) Initial” value ([3]; STZ diabetic rats, 100 mg/kg) was 244.3 ± 4.02 g, the “ALT (U/L)” value [3, 5] was 158.9 ± 26.25 U/L and the “AST (U/L)” value [3, 5] was 341.6 ± 70.90 U/L. The “Body weight (g) Final” value [3, 5] was 210.3 ± 9.98 g, the “8-OHdG in kidney” value ([3]; vs diabetes group) was “reduced in the group treated with AG, but the decrease was not that significant” and the “inhibitory effect (IC50, μg/ml)” value ([1]; 14 day) was 71.13 µg/mL. The “Inhibitory effect (%)” value ([1]; 14 day, 37 μg/ml) was 27.42 ± 1.51%, the “Inhibitory effect (%)” value ([1]; 14 day, 55.5 μg/ml) was 39.96 ± 0.90% and the “Inhibitory effect (%)” value ([1]; 14 day, 74 μg/ml) was 51.77 ± 1.91%. For the same compound, the “inhibitory effect (IC50, μg/ml)” value ([1]; 28 day) was 91.30 µg/mL, the “Inhibitory effect (%)” value ([1]; 28 day, 18.5 μg/ml) was 14.89 ± 4.11% and the “Inhibitory effect (%)” value ([1]; 28 day, 37.0 μg/ml) was 24.93 ± 3.46%. For the same compound, the “Inhibitory effect (%)” value ([1]; 28 day, 92.5 μg/ml) was 50.41 ± 0.41%.

`C=C(C)C1CCC2(CO)CCC3(C)C(CCC4C5(C)CCC(OC(=O)C=Cc6ccc(O)c(O)c6)C(C)(C)C5CCC43C)C12` (stereo not drawn) [betuline-3β-yl-caffeate] was tested, and the “inhibition of advanced glycation endproduct generation” value [1] was “confirmed to inhibit” and the “inhibition of aldose reductase activity” value [2] was “confirmed to inhibit”.

`C=C(C)C1CCC2(C(=O)O)CCC3(C)C(CCC4C5(C)CCC(OC(=O)C=Cc6ccc(O)c(O)c6)C(C)(C)C5CCC43C)C12` (stereo not drawn) [betulinic acid-3β-yl-caffeate] was tested, and the “inhibition of advanced glycation endproduct generation” value [1] was “confirmed to inhibit” and the “inhibition of aldose reductase activity” value [2] was “confirmed to inhibit”.
